Target: Bruton's tyrosine kinase (BTK) (Homo sapiens, UniProt Q06187)
Test: immunoblot of BTK Y223 autophosphorylation in anti-IgM-stimulated Ramos cells
Format: cell-based

Sequence of Bruton's tyrosine kinase (BTK) (Q06187 2-659): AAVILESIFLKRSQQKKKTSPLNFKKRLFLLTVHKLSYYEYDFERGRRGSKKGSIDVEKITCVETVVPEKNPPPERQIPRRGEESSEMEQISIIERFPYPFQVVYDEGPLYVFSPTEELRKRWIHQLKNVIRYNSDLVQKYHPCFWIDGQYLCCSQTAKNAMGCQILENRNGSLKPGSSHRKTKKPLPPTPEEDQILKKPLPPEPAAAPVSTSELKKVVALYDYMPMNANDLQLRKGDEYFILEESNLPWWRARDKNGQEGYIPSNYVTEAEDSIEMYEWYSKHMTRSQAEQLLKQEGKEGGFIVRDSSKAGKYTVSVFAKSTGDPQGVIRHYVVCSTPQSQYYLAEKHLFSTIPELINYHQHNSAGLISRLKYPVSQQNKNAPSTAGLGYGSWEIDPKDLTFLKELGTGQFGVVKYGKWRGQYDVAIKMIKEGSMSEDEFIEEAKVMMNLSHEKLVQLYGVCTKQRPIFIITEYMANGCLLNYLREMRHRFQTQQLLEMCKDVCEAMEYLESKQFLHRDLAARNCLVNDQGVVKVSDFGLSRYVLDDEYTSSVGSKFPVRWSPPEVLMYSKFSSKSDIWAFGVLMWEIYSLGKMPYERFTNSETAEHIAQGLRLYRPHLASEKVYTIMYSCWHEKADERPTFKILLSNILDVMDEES

IC50: < 10 nM
SMILES: C=CC(=O)Nc1cccc(Oc2nc(Nc3ccc(N4CCN(C)CC4)cc3)nc3ccoc23)c1 [HM71224]

Source: PMC5615432, “HM71224, a selective Bruton’s tyrosine kinase inhibitor, attenuates the development of murine lupus” (Arthritis Research & Therapy, 2017)
